Results reported in patent US20230293403A1, “Compositions Comprising Lipophilic Compounds and One or More (Bio)-Alkanediols” (Symrise AG, priority 2020, published 2023).

Experiments:
[1] = Maximum solubility of alkanediols in water, visual assessment (Example 6); settings: assessed visually at ambient temperature after 24 h storage at 5° C.; clear mixture = dissolved
[2] = Solubility of different alkanediols or mixtures thereof in sunflower oil (Example 1); assay type: physicochemical
Experimental: Each 15 g 1,2-pentanediol, 1,2-hexanediol, 1,2-heptanediol or 1,2-octanediol were dissolved in 85 g sunflower oil. Each 15 g of a mixture of 1,2-octanediol and 2,3-octanediol (95:5) or 1,2-heptanediol and 2,3-heptanediol (95:5) were dissolved in 85 g sunflower oil.

[3] = tested on: skin (backside of hand) of untrained panelists; test: Sensory evaluation by untrained panelists: heptanediols, octanediols and their mixtures blended 85:15 with liquid lipophilic components (Example 4, Table 22); parameters: species or system human; settings: in vivo
Experimental: Test procedure: • Hands were pre-washed with liquid soap by following a defined procedure; • 30 μl of corresponding sample was applied on the backside of each hand (randomized); • After 30 s the spreading behaviour of the respective formulation on skin was evaluated versus the respective oil component without 1,2-heptanediol on a scale from 1 to 5 (1=low spreading; 5=high spreading); • The samples were distributed with the fingertips of middle and forefinger with 2×5 cycles; • After 2 minutes, the fatty/greasy skin feel was evaluated on a scale from 1 to 5 (1=low fatty/greasy skin feel; 5=high fatty/greasy skin feel); • Furthermore the applicants were asked to assess the absorption, i.e. the impression of amount of remaining residue on the skin on a scale from 1 to 5 (1=low absorption; 5=high absorption).
For evaluating the sensory behaviour, liquid lipophilic components specified in the following Table 22 were blended with 1,2-heptanediol or 2,3-heptanediol or a mixture of 1,2-heptanediol and 2,3-heptanediol or 1,2-octanediol or 2,3-octanediol or a mixture of 1,2-octanediol and 2,3-octanediol (formulation) in a ratio of 85:15 and assessed by untrained panelists in comparison to the liquid lipophilic component without addition of the specified alkanediols (placebo).
The test procedure was carried out in the same manner as described in Example 2.

Row | SMILES | Maximum solubility in water [1] [% by weight] | solubility in sunflower oil [2] | improvement in spreading of liquid lipophilic components with poor spreading by nature [3]
1 | CCCCCCC(O)CO (stereo not drawn) [1,2-octanediol] |  | tends to precipitate or recrystallize | 
2 | CCCCCC(O)CO (stereo not drawn) [1,2-heptanediol] | 2.5 | better solubility | perform best
3 | CCCCCCCC(O)CO (stereo not drawn) [1,2-nonanediol] | 0.1 |  | 

Further lines, results first:

Row | Maximum solubility in water [1] [% by weight] | solubility in sunflower oil [2] | improvement in spreading of liquid lipophilic components with poor spreading by nature [3] | SMILES
4 | 0.5 |  |  | CCCCCCC(O)CO (stereo not drawn) [Hydrolite ® 8, Caprylyl Glycol]
5 | 1.5 |  |  | CCCCCC(O)C(C)O (stereo not drawn) [2,3-octanediol]
6 | 0.3 |  |  | CCCCCCC(O)C(C)O (stereo not drawn) [2,3-nonanediol]
7 | 3.6 |  |  | CCCCC(O)C(C)O (stereo not drawn) [2,3-heptanediol]
